Laboratory results published in PMC10777983, “The Optimization of Assay Conditions and Characterization of the Succinic Semialdehyde Dehydrogenase Enzyme of Germinated Tartary Buckwheat” (Foods, 2023).

Tested on: T1, SSADH (succinic semialdehyde dehydrogenase) of germinated Tartary buckwheat
T1 construct: NAD+-dependent (printed EC 1.2.1.79 is the NADP+ class)
Assay: NADH formation at […] nm, Lineweaver-Burk
Assay type: biochemical, Fagopyrum tataricum
Conditions: 1 mmol/L EDTA, 20 mmol/L beta-mercaptoethanol, 1 mmol/L PMSF, partially purified enzyme

Km (0.2 mmol/L SSA fixed, PBS pH 8.6, 30 °C) [µM]	Km (2 mmol/L NAD+, 1/15 mol/L PBS pH 8.6 (b78 prints mmol/L), 30 °C) [µM]	SMILES
636	–	NC(=O)c1ccc[n+]([C@@H]2O[C@H](COP(=O)(O)OP(=O)(O)OC[C@H]3O[C@@H](n4cnc5c(N)ncnc54)[C@H](O)[C@@H]3O)[C@@H](O)[C@H]2O)c1 [NAD^+]
–	~235	O=CCCC(=O)O [SSA]
